{"source": "patent US12077503B2", "about": "“Substituted cyclic amides and their use as herbicides” (FMC CORPORATION, priority 2015, dated 2024)", "test_system": "rice (Oryza sativa)", "assay": "Test C flooded paddy test", "format": "in vivo", "conditions": "Flood; for Plant response rating (scale of 0 to 100), Rice: 0 is no effect, 100 is complete control", "in_short": "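Rice, small-flower umbrella sedge, ducksalad and barnyardgrass at the 2-leaf stage were flooded to 3 cm, and compound was applied into the paddy water. After 13 to 15 d in a greenhouse, plants were rated visually against controls on a 0 (no effect) to 100 (complete control) scale.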", "data": [{"compound": "O=C1NCC(c2cccc(OC(F)(F)C(F)F)c2)C1C(=O)Nc1cccc(F)c1F", "note": "(racemic) [Compound 697]", "values": [{"measurement": "Plant response rating, Rice", "setting": "31 g ai/ha, scale 0 to 100 (0 no effect, 100 complete control), 13 to 15 d", "result": 0}, {"measurement": "Plant response rating (scale of 0 to 100), Rice", "setting": "62 g ai/ha", "result": 0}, {"measurement": "Plant response rating (scale of 0 to 100), Rice", "setting": "125 g ai/ha", "result": 50}, {"measurement": "Plant response rating (scale of 0 to 100), Rice", "setting": "250 g ai/ha", "result": 70}]}]}
